Test results reported in ChEMBL document CHEMBL1201862, “PubChem BioAssay data set” (2004).
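Briefly, cells in 96-well plates were exposed to five compound concentrations for 48 h, and endpoints were estimated by linear interpolation. The concentration for 50% growth inhibition is given as GI50.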 Active and inactive are the calls of the source. No stated cut-off is given here; in the data, active = GI50 up to about 1.1 µM and inactive = higher.

Legend:
Test in all cases: DTP human tumour cell line panel, 48 h
[1] = test system: OVCAR-8
[2] = test system: HOP-92
[3] = test system: SNB-75
[4] = test system: CAKI-1
[5] = test system: ACHN
[6] = test system: SN12C
[7] = test system: K562
[8] = test system: HCC 2998
[9] = test system: MOLT-4
[10] = test system: SK-OV-3
[11] = test system: SK-MEL-2
[12] = test system: UACC-62
[13] = test system: NCI-H226
[14] = test system: RXF 393
[15] = test system: NCI-H23
[16] = test system: U-251
[17] = test system: NCI-H522
[18] = test system: COLO 205
[19] = test system: HCT-15
[20] = test system: TK-10

Row | SMILES | GI50 [1] | GI50 [2] | GI50 [3] | GI50 [4] | GI50 [5] | GI50 [6] | GI50 [7] | GI50 [8] | GI50 [9] | GI50 [10] | GI50 [11] | GI50 [12] | GI50 [13] | GI50 [14] | GI50 [15] | GI50 [16] | GI50 [17] | GI50 [18] | GI50 [19] | GI50 [20]
1 | O=C1c2ccccc2-c2nnc(-c3ccc(Cl)cc3)cc21 | > 10 µM (inactive) | > 10 µM (inactive) | > 10 µM (inactive) | > 10 µM (inactive) | > 10 µM (inactive) | > 10 µM (inactive) | > 10 µM (inactive) | > 10 µM (inactive) | > 10 µM (inactive) | > 10 µM (inactive) | > 10 µM (inactive) | > 10 µM (inactive) | > 10 µM (inactive) | > 10 µM (inactive) | > 10 µM (inactive) | > 10 µM (inactive) | > 10 µM (inactive) | > 10 µM (inactive) | > 10 µM | –
2 | CCC1=C(C[C@H]2NCCc3cc(OC)c(OC)cc32)C[C@H]2c3cc(OC)c(OC)cc3CCN2C1 | 0.0272 µM (active) | 0.0204 µM (active) | 0.0332 µM (active) | 0.0312 µM (active) | 0.0388 µM (active) | 0.0326 µM (active) | – | 0.0293 µM (active) | 0.0128 µM (active) | 0.0637 µM (active) | 0.0248 µM (active) | 0.0336 µM (active) | – | 0.0254 µM (active) | 0.0191 µM (active) | 0.031 µM (active) | 0.0257 µM (active) | – | 0.258 µM | –
3 | CO[C@@H]1C[C@H]2[C@@H]3CC[C@H]([C@H](C)CO)[C@@]3(C)CC[C@@H]2[C@@]2(C)CC[C@H]3C[C@]312 | 49 µM (inactive) | 21 µM (inactive) | 89.9 µM (inactive) | 5.08 µM (inactive) | 33.2 µM (inactive) | 53.7 µM (inactive) | 26 µM (inactive) | 36.1 µM (inactive) | 32.5 µM (inactive) | – | – | – | 28.1 µM (inactive) | 26.2 µM (inactive) | 55.7 µM (inactive) | 27.6 µM (inactive) | 56 µM (inactive) | 20.1 µM (inactive) | 34 µM | > 100 µM (inactive)
4 | CSc1nc2c(ncn2C2OC(CO)C(O)C(O)C2O)c(=O)n1C (stereo not given) | > 100 µM (inactive) | > 100 µM (inactive) | > 100 µM (inactive) | – | – | > 100 µM (inactive) | > 100 µM (inactive) | > 100 µM (inactive) | > 100 µM (inactive) | > 100 µM (inactive) | > 100 µM (inactive) | > 100 µM (inactive) | > 100 µM (inactive) | > 100 µM (inactive) | > 100 µM (inactive) | > 100 µM (inactive) | > 100 µM (inactive) | > 100 µM (inactive) | > 100 µM | –
5 | CN(CCNC(=O)c1c[nH]c2c1Cc1ccccc1-2)CCNC(=O)c1c[nH]c2c1Cc1ccccc1-2 | 32.1 µM (inactive) | 22.6 µM (inactive) | – | 48.6 µM (inactive) | 43.6 µM (inactive) | 66.4 µM (inactive) | 30.3 µM (inactive) | 52.6 µM (inactive) | 24.7 µM (inactive) | – | 20.6 µM (inactive) | 18 µM (inactive) | 24.6 µM (inactive) | 30.5 µM (inactive) | 41.5 µM (inactive) | 18.5 µM (inactive) | 19.6 µM (inactive) | 35 µM (inactive) | 30.9 µM | 45.9 µM (inactive)
6 | C/C(CC(=O)Nc1cc(Cl)c(Cl)cc1Cl)=N\NC(N)=O | > 100 µM (inactive) | 39.1 µM (inactive) | 66.5 µM (inactive) | – | – | – | > 100 µM (inactive) | > 100 µM (inactive) | > 100 µM (inactive) | > 100 µM (inactive) | > 100 µM (inactive) | > 100 µM (inactive) | > 100 µM (inactive) | 61.7 µM (inactive) | > 100 µM (inactive) | > 100 µM (inactive) | 28.1 µM (inactive) | > 100 µM (inactive) | – | > 100 µM (inactive)
7 | O=C1CC(CC(O)[C@@H]2CCCC[C@@H]2O)CC(=O)N1c1ccccc1 (stereo not given in full) | > 100 µM (inactive) | 83.8 µM (inactive) | > 100 µM (inactive) | > 100 µM (inactive) | > 100 µM (inactive) | > 100 µM (inactive) | > 100 µM (inactive) | > 100 µM (inactive) | > 100 µM (inactive) | – | – | > 100 µM (inactive) | > 100 µM (inactive) | > 100 µM (inactive) | > 100 µM (inactive) | > 100 µM (inactive) | > 100 µM (inactive) | – | > 100 µM | > 100 µM (inactive)
8 | c1csc(-c2ccsc2-c2ccsc2)c1 | 91.2 µM (inactive) | > 100 µM (inactive) | > 100 µM (inactive) | > 100 µM (inactive) | > 100 µM (inactive) | > 100 µM (inactive) | 73.8 µM (inactive) | 28.3 µM (inactive) | 28.4 µM (inactive) | > 100 µM (inactive) | 17.5 µM (inactive) | > 100 µM (inactive) | 0.0264 µM (active) | 25.6 µM (inactive) | 43.5 µM (inactive) | > 100 µM (inactive) | – | 73.8 µM (inactive) | 39.8 µM | > 100 µM (inactive)
9 | C#Cc1ccccc1C(=O)OC | > 100 µM (inactive) | > 100 µM (inactive) | 11.5 µM (inactive) | – | > 100 µM (inactive) | > 100 µM (inactive) | > 100 µM (inactive) | > 100 µM (inactive) | > 100 µM (inactive) | > 100 µM (inactive) | > 100 µM (inactive) | > 100 µM (inactive) | > 100 µM (inactive) | > 100 µM (inactive) | > 100 µM (inactive) | > 100 µM (inactive) | 35.9 µM (inactive) | > 100 µM (inactive) | > 100 µM | > 100 µM (inactive)
10 | COc1ccccc1CNCc1nc2ccccc2[nH]1 | > 100 µM (inactive) | > 100 µM (inactive) | > 100 µM (inactive) | > 100 µM (inactive) | > 100 µM (inactive) | > 100 µM (inactive) | > 100 µM (inactive) | > 100 µM (inactive) | > 100 µM (inactive) | – | > 100 µM (inactive) | > 100 µM (inactive) | > 100 µM (inactive) | > 100 µM (inactive) | > 100 µM (inactive) | > 100 µM (inactive) | > 100 µM (inactive) | > 100 µM (inactive) | > 100 µM | > 100 µM (inactive)
11 | COC(=O)C1=C(\O)C[C@@]2(C)CC[C@@H](C(=O)OC)C2C/C=C\1C(=O)OC (stereo not given in full) | > 100 µM (inactive) | > 100 µM (inactive) | > 100 µM (inactive) | > 100 µM (inactive) | > 100 µM (inactive) | 24.1 µM (inactive) | – | > 100 µM (inactive) | 46.6 µM (inactive) | > 100 µM (inactive) | – | > 100 µM (inactive) | 89.1 µM (inactive) | 40.6 µM (inactive) | – | > 100 µM (inactive) | > 100 µM (inactive) | > 100 µM (inactive) | > 100 µM | > 100 µM (inactive)
12 | O=NN1C(c2ccccc2)C2CCCC(C2=O)C1c1ccccc1 (stereo not given) | 37.7 µM (inactive) | 22 µM (inactive) | 22.8 µM (inactive) | 41.4 µM (inactive) | – | 26.2 µM (inactive) | 21.1 µM (inactive) | 16.6 µM (inactive) | 27.1 µM (inactive) | 24.5 µM (inactive) | 20.2 µM (inactive) | 20.4 µM (inactive) | 25.1 µM (inactive) | 18.9 µM (inactive) | 19.7 µM (inactive) | 29.3 µM (inactive) | 19.1 µM (inactive) | 17.5 µM (inactive) | 29.3 µM | –
13 | O=[N+]([O-])c1ccc(/C=C/c2ccc(/N=N/c3ccc(/C=C/c4ccc([N+](=O)[O-])cc4S(=O)(=O)O)c(S(=O)(=O)O)c3)cc2S(=O)(=O)O)c(S(=O)(=O)O)c1 | > 100 µM (inactive) | > 53.1 µM (inactive) | 61.8 µM (inactive) | – | – | > 100 µM (inactive) | > 100 µM (inactive) | 43.6 µM (inactive) | > 100 µM (inactive) | > 100 µM (inactive) | > 100 µM (inactive) | > 100 µM (inactive) | > 100 µM (inactive) | > 100 µM (inactive) | > 100 µM (inactive) | > 100 µM (inactive) | > 100 µM (inactive) | > 100 µM (inactive) | > 63.7 µM | –
14 | CC(NNC(=O)c1cc[n+]([BH2-]C#N)cc1)c1cccc(F)c1 (stereo not given) | > 100 µM (inactive) | > 100 µM (inactive) | > 100 µM (inactive) | > 100 µM (inactive) | > 100 µM (inactive) | > 100 µM (inactive) | > 100 µM (inactive) | > 100 µM (inactive) | > 100 µM (inactive) | – | > 100 µM (inactive) | > 100 µM (inactive) | > 100 µM (inactive) | > 100 µM (inactive) | – | > 100 µM (inactive) | > 100 µM (inactive) | > 100 µM (inactive) | > 100 µM | > 100 µM (inactive)
15 | Nc1nc2[nH]c(=O)cnc2c(=O)[nH]1 [ISOXANTHOPTERIN] | > 125 µM (inactive) | > 125 µM (inactive) | > 125 µM (inactive) | > 125 µM (inactive) | – | > 125 µM (inactive) | > 125 µM (inactive) | > 125 µM (inactive) | > 125 µM (inactive) | > 125 µM (inactive) | > 125 µM (inactive) | > 125 µM (inactive) | > 125 µM (inactive) | > 125 µM (inactive) | > 125 µM (inactive) | > 125 µM (inactive) | > 19.8 µM (inactive) | > 125 µM (inactive) | > 78.9 µM | –
